According to US11261189B2, “Substituted 2,4 diamino-quinoline as new medicament for fibrosis, autophagy and cathepsins B (CTSB), L (CTSL) and D (CTSD) related diseases” (Genoscience Pharma, priority 2018, dated 2022):

Tests used:
[1] = system: autophagy flux (LC3-II) in RBE cell line; test: Autophagy flux, LC3-II immunoblot with/without Bafilomycin, RBE cell line; assay type: cell-based; conditions: 24 hours of treatment
Method: The capacity of compound 2-2 to modulate the cellular autophagy processes was also evaluated in the intrahepatic cholangiocarcinoma cell line RBE.
The RBE cell line was maintained in RPMI (Roswell Park Memorial Institute) 1640 (Cat #L0498-500, Dutscher) containing 1% penicillin-streptomycin (Cat #P06-07100, Dutscher) and 10% FBS (Cat #SV30160.03C, Dutscher). RBE Cells line were cultured at 37° C. with 5% CO2.
The day before the experiment, 6-well plates with 125,000 cells in 1.8 mL of medium per well were prepared.
Compound 2-2 was dissolved with filtrated DMSO to make a 10 mM stock solution and serial working solutions (10× solutions) at 9 μM, 18 μM and 36 μM were prepared with the diluent (=culture medium with 0.12% DMSO) to maintain a constant percentage of DMSO. Bafilomycin [CAS 88899-55-2] (Cat #B1793-10UG, Sigma) was dissolved with DMSO to make a 160.6 μM stock solution and a working solution (200× solution) was prepared with the culture medium at 20.1 μM. A “Baf diluent” solution corresponding to the dilution of DMSO in the Bafilomycin 200× solution (culture medium with 12.5% DMSO) is also prepared. […]
After 24 hours of cell line treatment, the medium was removed from each well. […] Total protein concentration was assessed using the BCA reagent (Cat #23227, ThermoFischer) and cellular lysates were stored at −80° C. until western-blot analysis. […]

[2] = system: diethyl nitrosamine (DEN) cirrhotic rat model of liver fibrosis; test: DEN induced cirrhosis in rats, study 2: Sirius red quantification of liver fibrosis; assay type: in vivo
Method: A second in vivo experiment, with the same diethyl nitrosamine (DEN) cirrhotic rat animal model of liver fibrosis, was performed including compound 2-2 (base form of compound 2-3) with discontinued oral dosing schedule and compound 5-3 with daily oral exposure. Compounds 2-2 and 5-3 were administered p.o. by gavage (oral gavage) once daily during 7 weeks.
Rats were treated with DEN for 13 weeks (intra-peritoneal injections (i.p.) of 50 mg/kg/week) and then treated according to the Table 10 dosage schedule during 7 weeks. At the end of the study, all animals were sacrificed using CO2 and rat livers were collected for analysis. The quantification of the liver fibrotic tissue was evaluated by Sirius red staining of rat liver sections.
Group 1 contained 6 animals which were daily dosed (q.d.) by oral gavage (per os, p.o.) with the vehicle during 7 weeks.
Group 2 contained 8 animals and the corresponding animals were daily dosed (q.d.) by oral gavage (per os, p.o.) with compound 2-2 during 4 weeks at 20 mg/kg/day and then during 3 weeks at 20 mg/kg every 2 days (q.o.d.: quaque altera die, one day treated, on day untreated).
Group 3 contained 8 animals and the corresponding animals were daily dosed (q.d.) by oral gavage (per os, p.o.) with compound 2-2 during 3 weeks at 20 mg/kg/day, then 2 weeks of treatment free period, and were then daily dosed (q.d.) by oral gavage (per os, p.o.) with compound 2-2 during 2 weeks at 20 mg/kg/day.
Group 4 contained 8 animals and the corresponding animals were daily dosed (q.d.) by oral gavage (per os, p.o.) with compound 5-3 during 4 weeks at 20 mg/kg/day, and were then daily dosed (q.d.) by oral gavage (per os, p.o.) with compound 5-3 during 3 weeks at 15 mg/kg/day.
Compound 2-2 and 5-3 were formulated in water for injection acidified with hydrochloric acid to pH 4.

## CC(C)(C)NC1CCN(c2cc(NCc3ccc(Cl)cc3)nc3ccccc23)CC1 [2-2, 2-(4-chlorobenzylamino)-4-(4-tert-butylaminopiperidin-1-yl)-quinoline]
[1]
  accumulation of the LC3-II form: significantly induced a dose-dependent accumulation of the LC3-II form
  autophagic flux (LC3-II Baf+/Baf− ratio): induced an inhibition of the autophagic flux
[2]; group 2 (20 qd/qod): 20 mg/kg p.o. q.d. 4 weeks then q.o.d. 3 weeks, after 13 weeks DEN, p=0.04
  reduction of the level of collagen fibers deposition (Sirius red) compared to the control group: 23%
[2]; group 3 (20 3WON/2WOFF/2WON): 20 mg/kg p.o. q.d. 3 weeks, 2 weeks off, q.d. 2 weeks, p=0.01
  reduction of the level of collagen fibers deposition (Sirius red) compared to the control group: 29%
